{"source": "patent US20210293825A1", "about": "“METHODS FOR PRECISION THERAPEUTIC TARGETING OF HUMAN CANCER CELL MOTILITY AND KITS THEREOF” (UNITED STATES GOVERNMENT AS REPRESENTED BY THE DEPARTMENT …, priority 2018, published 2021)", "key": {"[1]": {"assay": "Histologic examination of tissue / systemic off-target effects", "assay_type": "in vivo, Balb/c athymic mice", "method": "Histologic examination of tissue. Organs of athymic male mice stained with H&E, Trichrome or Giemsa were microscopically examined by a mouse pathologist in a blinded fashion, and toxicity scored using an established semi-quantitative histological scoring system (Knodell, R. G. et al., Hepatology 1, 431-5 (1981)) (FIG. 14). The following clinical chemistry parameters were measured in blood of CD1 male and female mice by Charles River Research Animal Diagnostic Services: cholesterol, triglycerides, alanine aminotransferase (ALT), aspartate aminotransferase (AST), total bilirubin, glucose, phosphorus, total protein, calcium, blood urea nitrogen (BUN), creatinine, albumin, Na, K, Cl, white blood cells (with differential), red blood cells, hemoglobin, and platelets.\nAfter 35 days of treatment, the following organs were harvested at necropsy, and stained with H&E (alternative staining methods as indicated): heart, lungs, esophagus, stomach, colon, small intestine, liver (Trichrome staining), kidneys (Trichrome staining), adrenals, bladder, prostate, spleen, pancreas, brain, testes, and bone marrow and peripheral blood (Giemsa staining). Organs were examined for damage using a semi-quantitative histological scoring system, as described (Knodell, R. G. et al., Hepatology 1, 431-5 (1981)). […] Note that mice were immunocompromised, and that changes in the liver reflected episodic and minor foci of necrosis, consistent with a prior resolved infection; clinically, mice were all healthy. The graph above depicts the scoring of liver lesions, with each data point representing a single mouse."}, "PC3-M cells": {"system": "PC3-M cells", "assay": "Boyden chamber cell invasion assay, PC3-M cells", "assay_type": "cell-based, human", "method": "Following the synthetic strategy outlined in FIG. 1a, 4′,5,7-trihydroxyisoflavone was used as the chemical scaffold. […] Note, demethylation within the cell cannot be predicted. Therefore, the loss of function was considered to be informative for methylated compounds. […] This adds further evidence of the importance of the C4′-hydroxyl for activity. […] For cell invasion, PC3-M cells were treated with 10 μM compound for a total of 3 days, and cell invasion assays were run at the end of the 3 day period, in the presence of compound. Values are the mean±SEM of three separate experiments, each run in replicates of N=3. […] Values are the mean±SEM of a single experiment, in replicates of N=4, repeated at least once (also N=4). […] The initial structure-activity relationship (SAR) data informed the second round of compound synthesis. […] Compared to 4′,5,7-trihydroxyisoflavone, KBU2046 is non-planar, lacks hydroxyl groups, and particularly those that mediate ER binding, is halogen-substituted, and has a distinctly different biological profile. These characteristics place KBU2046 in a chemically distinct class, compared to the starting compound.\nCell Invasion Assays. Boyden chamber cell invasion assays were performed as previously described^9, using either denatured collagen (BD Biosciences) or type IV human collagen (BD Biosciences), with the experiments repeated, each in N=4 replicates. In some experiments, as indicated, cells were transfected with an expression plasmid, using Lipofectamine 2000™ (Invitrogen), or with siRNA, using DharmaFect Duo (Thermo Scientific) and co-transfected with β-Galactosidase (Plasmid pCMV⋅SPORT-βgal; Life Technology).\nThe initial round of synthesis was designed to examine the removal of individual chemical fragments. In this manner, the importance of these functional groups in mediating efficacy (inhibition of cell invasion) could be determined. […] Initial assays were performed with PC3 and PC3-M cells. However, as these studies yielded similar findings, subsequent screening assays utilized only PC3-M cells. In designing chemical synthetic routes, priority was given to efficacy and toxicity parameters. […] These additional design features included removal of fragments that mediated genistein binding to the estrogen receptor (ER), as determined by ER-genistein 3D x-ray crystal structures (Protein Data Base IDs: 1X7R and 1X7J, for crystal structures of ERα and ERβ with bound genistein, respectively). These features also included removal of chemical fragments that are considered to increase susceptibility to rapid metabolism, for example by the cytochrome P450 (CYP) pathway. The final feature involved incorporation of chemical characteristics previously shown to be associated with effective drugs and which together generally impart more favorable pharmacologic properties, including those described by Lipinski et al. (Lipinski, C. A. et al., Adv Drug Deliv Rev 46, 3-26 (2001))."}, "PC3-luc cells": {"system": "PC3-luc cells", "assay": "Prostate cancer intracardiac injection bone metastasis model", "assay_type": "in vivo, athymic mice", "method": "Athymic mice were given intracardiac (IC) injections of PC3-luc cells on day 0 under ultrasound guidance, and underwent weekly IVIS imaging starting seven days post injection. Cohorts of N=20 control, N=20 Pre (treatment from 3 days prior to IC injection through end of experiment), N=10 Pre7Stop (treatment from 3 days prior to IC injection through 7 days post IC injection) and N=10 Post treatment (treatment from 3 days post-IC injection through end of experiment) mice were dosed with 80 mg/kg KBU2046 daily by oral gavage and mock treated with vehicle all other times. FIG. 3c depicts whole body and FIG. 3b depicts mandible flux as determined from weekly IVIS imaging. […] Arrows denote areas of bone destruction in controls, and corresponding areas in the Pre mouse. Student's t test (b-c) and Fisher's exact test (d) P values between the denoted cohorts are shown.\nProstate cancer: intracardiac (IC) injection. IC injection of 4.0×10^5 PC3-Luc cells into male 6-8 week old athymic mice with IVIS imaging was performed as described (Chu, K. et al., Mol Cancer Res 6, 1259-67 (2008)), and was done so under ultrasound guidance (FIG. 15). Mice were treated pre- and/or post-IC injection, as indicated. The pretreatment cohort emulates a metastasis naïve model wherein cell motility is required in order for cells to invade into a distant organ, in this case the jaw bone, for which this model is widely used. If KBU2046 were inhibiting cell motility, then in this model it would act to inhibit metastasis formation. In contrast, with the post implantation cohort, cells have already completed invasion into the jaw bone, and distant metastasis have been established. […] IVIS imaging was performed 30 minutes after IC injection to confirm systemic distribution of cells, and thereafter weekly for 4 weeks starting seven days post injection, allowing real time tracking of metastasis development and growth. Computed Tomograpgy (CT) (Inveon, Seimens) radiographic imaging was performed on some mice, as indicated, and resultant images analyzed in a blinded fashion using Inveon Research Workplace 4.2 visualization/analysis software and ImageJ. […] Experimental groups were randomly assigned to cages prior to the initiation of the study. CT images were analyzed in a blinded fashion to determine total bone loss using both the Invenon Research Workplace 4.2 visualization/analysis software and ImageJ. Specifically, to assess bone loss in an unbiased manor, an operator randomly loaded images into the system and blocked out identifying information prior to analysis by two separate blinded individuals."}, "[2]": {"settings": "Pre cohort, 80 mg/kg daily oral gavage"}}}
{"smiles": "O=C1c2ccccc2OCC1c1ccc(F)cc1", "note": "(racemic) [KBU2046, (±)-3(4-fluorophenyl)chroman-4-one]", "values": [{"measurement": "changes in the liver", "setting": "[1]; 35 days of treatment in chow", "value": "not increased by KBU2046 treatment"}, {"measurement": "organ damage (histological scoring)", "setting": "[1]; 35 days of treatment in chow", "value": "No organ damage was observed, except in the livers of both control and treatment mice"}, {"measurement": "off-target effects (tumor growth, behavior, weight, histology, serum chemistry)", "setting": "[1]; mouse, in vivo", "value": "failed to identify KBU2046-associated off-target effects"}, {"measurement": "effect on cell invasion", "setting": "PC3-M cells; 10 μM compound, 3 days", "value": "anti-invasive efficacy at least equal to that of the starting compound"}, {"measurement": "inhibition of cell invasion", "setting": "PC3-M cells; (S226A)-HSP90β transfected PC3-M cells", "value": "does not further inhibit cell invasion"}, {"measurement": "inhibition of cell invasion", "setting": "PC3-M cells; (S226D)-HSP90β transfected PC3-M cells", "value": "did not significantly inhibit cell invasion"}, {"measurement": "anti-invasion efficacy under TGFβ-stimulated invasion", "setting": "PC3-M cells; PC3-M cells, ±TGFβ", "value": "retains efficacy"}, {"measurement": "inhibition of cell invasion", "setting": "PC3-M cells; VC and WT-HSP90β transfected PC3-M cells", "value": "significantly inhibited invasion"}, {"measurement": "efficacy on cell invasion", "setting": "PC3-M cells; siRNA-mediated HSP90β knockdown", "value": "abrogated KBU2046 efficacy"}, {"measurement": "inhibition of cell invasion", "setting": "PC3-M cells; vector control (VC) transfected PC3-M cells", "value": "significantly inhibits invasion"}, {"measurement": "metastasis to the total body and to the jaw", "setting": "PC3-luc cells; Post cohort, treatment from 3 days post-IC injection", "value": "do not differ from control mice"}, {"measurement": "jaw metastasis", "setting": "PC3-luc cells; Pre7Stop cohort", "value": "jaw metastasis is significantly decreased compared to control"}, {"measurement": "total body metastasis", "setting": "PC3-luc cells; Pre7Stop cohort, compared to control and Post cohorts", "value": "total body metastasis is significantly decreased"}, {"measurement": "metastasis to the mandible", "setting": "PC3-luc cells; [2]", "value": "decreased metastasis to the mandible"}, {"measurement": "total metastatic burden (whole body flux)", "setting": "PC3-luc cells; [2]", "value": "significant decrease in total metastatic burden"}, {"measurement": "destruction of bone (mandible, Computed Tomography)", "setting": "PC3-luc cells; Pre cohort, week 4", "value": "decreased destruction of bone"}]}
